In PMC11604428, “UPLC-ESI/MS^n metabolic profiling of Cedrela odorata L. and Toona ciliata M. Roem and in vitro investigation of their anti-diabetic activity supported with molecular docking studies” (Frontiers in Chemistry, 2024):

Legend:
C57BL/KsJ-db/db mice = tested on: C57BL/KsJ-db/db mice; design: method as in Jung et al., 2006; conditions: ref Jung et al., 2006; cited from earlier work
α-amylase [1] = assay: α-Amylase inhibition assay; type: biochemical; conditions: mean ± SD, triplicate
Description: The α-amylase inhibitory activities of the tested Cedrela extracts were determined according to the standard published procedure with minor amendments ([Kazeem et al., 2013]). The enzyme solution was prepared by dissolving α-amylase in 20 mM phosphate buffer (pH = 6.9) at a concentration of 0.50 mg/mL. Then, 1 mL of different concentrations of the tested extract (0.01–100 μg/mL) was mixed with 1 mL of enzyme solution and allowed to sit at room temperature for 10 min. After incubation, 1 mL of 0.50% starch solution was included to the mixture and further incubated at room temperature for 10 min. The reaction was then ended by addition of 3,5-dinitrosalicylic acid (2 mL) and then heating the reaction mixture in a boiling water bath for 5 min. After cooling, the absorbance of the mixture was colorimetrically determined at 565 nm. Pioglitazone was used as a standard drug.
The assays were performed in triplicates, and the obtained values are stated as mean ± SD. For the in vitro investigation of α-amylase and α-glucosidase inhibitory properties, the IC50 was obtained from the graph plots of the dose–response curves at each oil concentration via Graph Pad Prism® software (San Diego, CA, United States).

[2] = tested on: streptozotocin-induced diabetic mice; design: method as in Lee et al., 2010; Jang et al., 2009; Jang et al., 2010; conditions: streptozotocin-nicotinamide-induced, streptozotocin + high-fat diet and streptozotocin-induced diabetic mice, ref Lee et al., 2010, Jang et al., 2009; cited from earlier work
α-amylase [3] = tested on: α-amylase; design: method as in Shen et al., 2023; conditions: ref Shen et al., 2023; cited from earlier work
α-glucosidase = α-glucosidase (Saccharomyces cerevisiae, UniProt P53341); design: method as in Shen et al., 2023; conditions: ref Shen et al., 2023; cited from earlier work
Sequence of α-glucosidase (P53341 whole entry): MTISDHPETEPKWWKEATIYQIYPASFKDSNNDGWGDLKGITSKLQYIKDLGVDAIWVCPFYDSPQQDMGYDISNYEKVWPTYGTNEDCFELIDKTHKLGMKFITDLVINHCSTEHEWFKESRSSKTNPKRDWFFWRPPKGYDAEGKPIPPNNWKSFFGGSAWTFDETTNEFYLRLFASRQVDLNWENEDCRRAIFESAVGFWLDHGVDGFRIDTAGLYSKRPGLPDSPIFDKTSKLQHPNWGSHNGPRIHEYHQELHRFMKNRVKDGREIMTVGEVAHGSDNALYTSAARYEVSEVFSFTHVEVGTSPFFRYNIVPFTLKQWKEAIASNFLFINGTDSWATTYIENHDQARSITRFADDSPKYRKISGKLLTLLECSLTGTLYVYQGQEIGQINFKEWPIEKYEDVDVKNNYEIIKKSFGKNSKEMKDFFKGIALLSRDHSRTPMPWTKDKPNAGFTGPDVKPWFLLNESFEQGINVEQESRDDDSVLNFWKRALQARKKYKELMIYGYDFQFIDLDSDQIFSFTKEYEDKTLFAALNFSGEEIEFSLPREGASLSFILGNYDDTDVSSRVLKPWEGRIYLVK

SMILES: O=C(O)/C=C/c1ccc(O)c(O)c1 [Caffeic acid]
- anti-hyperglycemic effect (C57BL/KsJ-db/db mice): anti-hyperglycemic properties

SMILES: CCc1ccc(CCOc2ccc(CC3SC(=O)NC3=O)cc2)nc1 (stereo not shown) [Pioglitazone]
- α-Amylase inhibition (%) (α-amylase [1]; concentration 0.01 µg/mL): 12.50 ± 2.05%
- α-Amylase inhibition (%) (α-amylase [1]; concentration 0.10 µg/mL): 27.70 ± 1.28%
- α-Amylase inhibition (%) (α-amylase [1]; concentration 1.00 µg/mL): 45.40 ± 2.45%
- α-Amylase inhibition (%) (α-amylase [1]; concentration 10.00 µg/mL): 80.60 ± 0.23%
- α-Amylase inhibition (%) (α-amylase [1]; concentration 100.00 µg/mL): 91.70 ± 1.05%
- α-Amylase inhibition IC50 (α-amylase [1]): 2.17 ± 0.23 µg/mL

SMILES: C[C@H]1[C@H](C)CC[C@]2(C(=O)O)CC[C@]3(C)C(=CC[C@@H]4[C@@]5(C)CC[C@H](O)C(C)(C)[C@@H]5CC[C@]43C)[C@H]12 [Ursolic acid]
- effect on blood glucose levels [2]: positive effect on reducing blood glucose levels

SMILES: O=c1c(O)c(-c2ccc(O)c(O)c2)oc2cc(O)cc(O)c12 [quercetin]
- inhibition of α-amylase activity (α-amylase [3]): markedly inhibited
- inhibition of α-glucosidase activity (α-glucosidase): markedly inhibited
